Results as given in patent publication US12491170B2, “Stable treprostinil prodrugs” (United Therapeutics Corporation, priority 2020, dated 2025).
Read-outs that look alike come from different tables or passages of the source.

Columns and labels:
[1] = dog
[2] = Stability in cryopreserved hepatocytes, human; conditions: for AUC: human
[3] = Stability in cryopreserved hepatocytes, dog; conditions: for AUC: dog
[4] = Stability in liver microsomes, dog
[5] = Stability in cryopreserved hepatocytes, rat; conditions: for AUC: rat
[6] = Stability in human subcutaneous skin homogenate; conditions: for AUC: human
[7] = Stability in liver microsomes, rat
[8] = rat
[9] = Stability in liver microsomes, human; conditions: for AUC: human

SMILES: CCCCCC(CCC1C(O)CC2Cc3c(cccc3OCC(=O)O)CC21)OC(=O)CC (stereo not shown) [LV]
- AUC [1]: 53.25 µmol·min/L
- Trep Concentration (μM) 0 min [2]: 0.113 µM
- Trep Concentration (μM) 15 min [2]: 0.725 µM
- Trep Concentration (μM) 30 min [2]: 0.654 µM
- Trep Concentration (μM) 60 min [2]: 0.589 µM
- Trep Concentration (μM) 120 min [2]: 0.527 µM
- AUC [2]: 68.75 µmol·min/L
- Trep Concentration (μM) 0 min [3]: 0.124 µM
- Trep Concentration (μM) 30 min [3]: 0.698 µM
- Trep Concentration (μM) 60 min [3]: 0.599 µM
- Trep Concentration (μM) 120 min [3]: 0.53 µM
- AUC [3]: 71.21 µmol·min/L
- Trep Concentration 0 min [4]: 0.971 µM
- Trep Concentration 10 min [4]: 0.961 µM
- Trep Concentration 20 min [4]: 0.934 µM
- Trep Concentration 30 min [4]: 0.915 µM
- Trep Concentration 60 min [4]: 0.743 µM
- Trep Concentration (μM) 0 min [5]: 0.0159 µM
- Trep Concentration (μM) 15 min [5]: 0.506 µM
- Trep Concentration (μM) 30 min [5]: 0.48 µM
- Trep Concentration (μM) 60 min [5]: 0.424 µM
- Trep Concentration (μM) 120 min [5]: 0.391 µM
- AUC [5]: 49.32 µmol·min/L
- Trep Concentration 0 min [6]: 0.0045 µM
- Trep Concentration 30 min [6]: 0.545 µM
- Trep Concentration 60 min [6]: 0.741 µM
- Trep Concentration 120 min [6]: 0.954 µM
- AUC [6]: 78.38 µmol·min/L
- Trep Concentration 0 min [7]: 0.26 µM
- Trep Concentration 10 min [7]: 0.43 µM
- Trep Concentration 20 min [7]: 0.525 µM
- Trep Concentration 30 min [7]: 0.586 µM
- Trep Concentration 60 min [7]: 0.553 µM
- AUC [8]: 30.87 µmol·min/L
- Trep Concentration 0 min [9]: 1.17 µM
- Trep Concentration 10 min [9]: 1.01 µM
- Trep Concentration 20 min [9]: 0.837 µM
- Trep Concentration 30 min [9]: 0.736 µM
- Trep Concentration 60 min [9]: 0.389 µM
- AUC [9]: 44.88 µmol·min/L

SMILES: CCCCCC(CCC1C(O)CC2Cc3c(cccc3OCC(=O)O)CC21)OCC (stereo not shown) [XLVII]
- AUC [1]: 1.62 µmol·min/L
- Trep Concentration (μM) 0 min [2]: 0 µM
- Trep Concentration (μM) 15 min [2]: 0.0152 µM
- Trep Concentration (μM) 30 min [2]: 0.0199 µM
- Trep Concentration (μM) 60 min [2]: 0.0215 µM
- Trep Concentration (μM) 120 min [2]: 0.0212 µM
- AUC [2]: 2.28 µmol·min/L
- Trep Concentration (μM) 0 min [3]: 0 µM
- Trep Concentration (μM) 15 min [3]: 0 µM
- Trep Concentration (μM) 30 min [3]: 0 µM
- Trep Concentration (μM) 60 min [3]: 0.00355 µM
- Trep Concentration (μM) 120 min [3]: 0.00371 µM
- AUC [3]: 0.27 µmol·min/L
- Trep Concentration 0 min [4]: 0 µM
- Trep Concentration 10 min [4]: 0.0118 µM
- Trep Concentration 20 min [4]: 0.0187 µM
- Trep Concentration 30 min [4]: 0.0285 µM
- Trep Concentration 60 min [4]: 0.0499 µM
- Trep Concentration (μM) 0 min [5]: 0 µM
- Trep Concentration (μM) 15 min [5]: 0.0168 µM
- Trep Concentration (μM) 30 min [5]: 0.0209 µM
- Trep Concentration (μM) 60 min [5]: 0.0231 µM
- Trep Concentration (μM) 120 min [5]: 0.0216 µM
- AUC [5]: 2.41 µmol·min/L
- Trep Concentration 0 min [6]: 0 µM
- Trep Concentration 0 min [7]: 0 µM
- Trep Concentration 10 min [7]: 0.0292 µM
- Trep Concentration 20 min [7]: 0.0421 µM
- Trep Concentration 30 min [7]: 0.0553 µM
- Trep Concentration 60 min [7]: 0.0719 µM
- AUC [8]: 2.90 µmol·min/L
- Trep Concentration 0 min [9]: 0 µM
- Trep Concentration 10 min [9]: 0.0448 µM
- Trep Concentration 20 min [9]: 0.0686 µM
- Trep Concentration 30 min [9]: 0.0816 µM
- Trep Concentration 60 min [9]: 0.124 µM
- AUC [9]: 4.63 µmol·min/L

SMILES: CCCCCC(CCC1C(O)CC2Cc3c(cccc3OCC(=O)O)CC21)OCCC (stereo not shown) [XLVI]
- AUC [1]: 2.78 µmol·min/L
- Trep Concentration (μM) 0 min [2]: 0 µM
- Trep Concentration (μM) 15 min [2]: 0.00507 µM
- Trep Concentration (μM) 30 min [2]: 0.00509 µM
- Trep Concentration (μM) 60 min [2]: 0.00568 µM
- Trep Concentration (μM) 120 min [2]: 0.0061 µM
- AUC [2]: 0.63 µmol·min/L
- Trep Concentration (μM) 0 min [3]: 0 µM
- Trep Concentration (μM) 15 min [3]: 0.00361 µM
- Trep Concentration (μM) 30 min [3]: 0.00376 µM
- Trep Concentration (μM) 60 min [3]: 0.00437 µM
- Trep Concentration (μM) 120 min [3]: 0.00465 µM
- AUC [3]: 0.47 µmol·min/L
- Trep Concentration 0 min [4]: 0 µM
- Trep Concentration 10 min [4]: 0.0211 µM
- Trep Concentration 20 min [4]: 0.0334 µM
- Trep Concentration 30 min [4]: 0.0485 µM
- Trep Concentration 60 min [4]: 0.0841 µM
- Trep Concentration (μM) 0 min [5]: 0 µM
- Trep Concentration (μM) 15 min [5]: 0.0144 µM
- Trep Concentration (μM) 30 min [5]: 0.0194 µM
- Trep Concentration (μM) 60 min [5]: 0.0209 µM
- Trep Concentration (μM) 120 min [5]: 0.0224 µM
- AUC [5]: 2.27 µmol·min/L
- Trep Concentration 0 min [6]: 0 µM
- Trep Concentration 30 min [6]: 0 µM
- Trep Concentration 60 min [6]: 0 µM
- Trep Concentration 120 min [6]: 0 µM
- AUC [6]: 0.00 µmol·min/L
- Trep Concentration 0 min [7]: 0 µM
- Trep Concentration 10 min [7]: 0.0425 µM
- Trep Concentration 20 min [7]: 0.0633 µM
- Trep Concentration 30 min [7]: 0.0882 µM
- Trep Concentration 60 min [7]: 0.123 µM
- AUC [8]: 4.67 µmol·min/L
- Trep Concentration 0 min [9]: 0 µM
- Trep Concentration 10 min [9]: 0.0342 µM
- Trep Concentration 20 min [9]: 0.0556 µM
- Trep Concentration 30 min [9]: 0.0656 µM
- Trep Concentration 60 min [9]: 0.0835 µM
- AUC [9]: 3.46 µmol·min/L
